Data taken from the supplement of paper PMC4862054.

Legend:
[1] = test system: BT-474; experiment: normalised viability (% of control), CellTiter-Blue; higher = more viable cells (about 100 = DMSO control); conditions: 100 nM; incubation time: 72 h
Method: (§1)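 DSRT, CellTiter-Blue viability, 72 h incubation. Signal is normalised to DMSO and benzethonium chloride controls. Value is the normalised response at dose 3.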

[2] = test system: BT-549; experiment: as above; conditions: 100 nM; incubation time: 72 h
Method: as §1

[3] = test system: CAL-120; experiment: as above; conditions: 100 nM; incubation time: 72 h
Method: as §1

[4] = test system: CAL-148; experiment: as above; conditions: 10 nM; incubation time: 72 h
Method: as §1

[5] = test system: CAL-51; experiment: as above; conditions: 10 nM; incubation time: 72 h
Method: as §1

[6] = test system: CAL-85-1; experiment: as above; conditions: 10 nM; incubation time: 72 h
Method: as §1

[7] = test system: DU-4475; experiment: as above; conditions: 10 nM; incubation time: 72 h
Method: as §1

[8] = test system: HCC1143; experiment: as above; conditions: 100 nM; incubation time: 72 h
Method: as §1

[9] = test system: HCC1599; experiment: as above; conditions: 100 nM; incubation time: 72 h
Method: as §1

[10] = test system: HCC1937; experiment: as above; conditions: 100 nM; incubation time: 72 h
Method: as §1

[11] = test system: HDQ-P1; experiment: as above; conditions: 10 nM; incubation time: 72 h
Method: as §1

[12] = test system: Hs578T; experiment: as above; conditions: 100 nM; incubation time: 72 h
Method: as §1

[13] = test system: MDA-MB-231; experiment: as above; conditions: 100 nM; incubation time: 72 h
Method: as §1

[14] = test system: MDA-MB-436; experiment: as above; conditions: 100 nM; incubation time: 72 h
Method: as §1

[15] = test system: MDA-MB-453; experiment: as above; conditions: 10 nM; incubation time: 72 h
Method: as §1

[16] = test system: MDA-MB-468; experiment: as above; conditions: 100 nM; incubation time: 72 h
Method: as §1

[17] = test system: MFM-223; experiment: as above; conditions: 100 nM; incubation time: 72 h
Method: as §1

[18] = test system: SK-BR-3; experiment: as above; conditions: 100 nM; incubation time: 72 h
Method: as §1

[19] = test system: BT-474; experiment: normalised viability (% of control), CellTiter-Blue; higher = more viable cells (about 100 = DMSO control); conditions: incubation time: 72 h
Summary of the method: (§2)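 The reported quantity is normalised viability at a single listed concentration of the series. Compound in 5 µl medium was pre-dispensed into 384-well plates and 20 µl of breast cancer cell suspension was added for 72 h. A 2 h, 37 °C CellTiter-Blue step (2.5 µl) preceded fluorescence reading at 560/590 nm, and plates were normalised to vehicle (100) and a positive kill control (0).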

[20] = test system: BT-549; experiment: as above; conditions: incubation time: 72 h
Summary of the method: as §2

[21] = test system: CAL-120; experiment: as above; conditions: incubation time: 72 h
Summary of the method: as §2

[22] = test system: CAL-148; experiment: as above; conditions: incubation time: 72 h
Summary of the method: as §2

[23] = test system: CAL-51; experiment: as above; conditions: incubation time: 72 h
Summary of the method: as §2

[24] = test system: CAL-85-1; experiment: as above; conditions: incubation time: 72 h
Summary of the method: as §2

[25] = test system: DU-4475; experiment: as above; conditions: incubation time: 72 h
Summary of the method: as §2

[26] = test system: HCC1143; experiment: as above; conditions: incubation time: 72 h
Summary of the method: as §2

[27] = test system: HCC1599; experiment: as above; conditions: incubation time: 72 h
Summary of the method: as §2

[28] = test system: HCC1937; experiment: as above; conditions: incubation time: 72 h
Summary of the method: as §2

[29] = test system: HDQ-P1; experiment: as above; conditions: incubation time: 72 h
Summary of the method: as §2

[30] = test system: Hs578T; experiment: as above; conditions: incubation time: 72 h
Summary of the method: as §2

[31] = test system: MDA-MB-231; experiment: as above; conditions: incubation time: 72 h
Summary of the method: as §2

[32] = test system: MDA-MB-436; experiment: as above; conditions: incubation time: 72 h
Summary of the method: as §2

[33] = test system: MDA-MB-453; experiment: as above; conditions: incubation time: 72 h
Summary of the method: as §2

[34] = test system: MDA-MB-468; experiment: as above; conditions: incubation time: 72 h
Summary of the method: as §2

[35] = test system: MFM-223; experiment: as above; conditions: incubation time: 72 h
Summary of the method: as §2

[36] = test system: SK-BR-3; experiment: as above; conditions: incubation time: 72 h
Summary of the method: as §2

[37] = test system: BT-474; experiment: normalised viability (% of control), CellTiter-Blue; higher = more viable cells (100 = DMSO, 0 = benzethonium chloride kill control); conditions: incubation time: 72 h
Method: (§3)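 DSRT, CellTiter-Blue viability, 72 h incubation. Signal is normalised to DMSO and benzethonium chloride controls. Value is the normalised response at dose 1.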

[38] = test system: BT-549; experiment: as above; conditions: incubation time: 72 h
Method: as §3

[39] = test system: CAL-120; experiment: as above; conditions: incubation time: 72 h
Method: as §3

[40] = test system: CAL-148; experiment: as above; conditions: incubation time: 72 h
Method: as §3

[41] = test system: CAL-51; experiment: as above; conditions: incubation time: 72 h
Method: as §3

[42] = test system: CAL-85-1; experiment: as above; conditions: incubation time: 72 h
Method: as §3

[43] = test system: DU-4475; experiment: as above; conditions: incubation time: 72 h
Method: as §3

[44] = test system: HCC1143; experiment: as above; conditions: incubation time: 72 h
Method: as §3

[45] = test system: HCC1599; experiment: as above; conditions: incubation time: 72 h
Method: as §3

[46] = test system: HCC1937; experiment: as above; conditions: incubation time: 72 h
Method: as §3

[47] = test system: HDQ-P1; experiment: as above; conditions: incubation time: 72 h
Method: as §3

[48] = test system: Hs578T; experiment: as above; conditions: incubation time: 72 h
Method: as §3

[49] = test system: MDA-MB-231; experiment: as above; conditions: incubation time: 72 h
Method: as §3

[50] = test system: MDA-MB-436; experiment: as above; conditions: incubation time: 72 h
Method: as §3

[51] = test system: MDA-MB-453; experiment: as above; conditions: incubation time: 72 h
Method: as §3

[52] = test system: MDA-MB-468; experiment: as above; conditions: incubation time: 72 h
Method: as §3

[53] = test system: MFM-223; experiment: as above; conditions: incubation time: 72 h
Method: as §3

[54] = test system: SK-BR-3; experiment: as above; conditions: incubation time: 72 h
Method: as §3

With `COC(=O)C[C@](O)(CCCC(C)(C)O)C(=O)O[C@@H]1C(OC)=C[C@]23CCCN2CCc2cc4c(cc2[C@H]13)OCO4` [Omacetaxine mepesuccinate] the normalised viability [1] was 54.8%, the normalised viability [2] was 19.2% and the normalised viability [3] was 15.1%. The normalised viability [4] was 67.6%, the normalised viability [5] was 92.8% and the normalised viability [6] was 79.7%. It also gave a normalised viability [7] of 25.1%, a normalised viability [8] of 37.7% and a normalised viability [9] of 29.4%. For the same compound, the normalised viability [10] was 14.9%, the normalised viability [11] was 73% and the normalised viability [12] was 6.8%. The normalised viability [13] was 22.1%, the normalised viability [14] was 21.4% and the normalised viability [15] was 90.2%. The normalised viability [16] was 17.7%, the normalised viability [17] was 31% and the normalised viability [18] was 18.3%. The normalised viability ([19]; 10 nM) was 118%, the normalised viability ([19]; 1000 nM) was 23% and the normalised viability ([19]; 10000 nM) was 13.3%. It also gave a normalised viability ([20]; 10 nM) of 87.2%, a normalised viability ([20]; 1000 nM) of 7.63% and a normalised viability ([20]; 10000 nM) of 4.5%. It also gave a normalised viability ([21]; 10 nM) of 69.2%, a normalised viability ([21]; 1000 nM) of 7.92% and a normalised viability ([21]; 10000 nM) of 5.91%. The normalised viability ([22]; 3 nM) was 96.3%, the normalised viability ([22]; 30 nM) was 26% and the normalised viability ([22]; 100 nM) was 14.8%. The normalised viability ([23]; 3 nM) was 101%, the normalised viability ([23]; 30 nM) was 31.6% and the normalised viability ([23]; 100 nM) was 11.8%. The normalised viability ([24]; 3 nM) was 86.8%, the normalised viability ([24]; 30 nM) was 25.3% and the normalised viability ([24]; 100 nM) was 9.04%. It also gave a normalised viability ([25]; 3 nM) of 81%, a normalised viability ([25]; 30 nM) of 2.2% and a normalised viability ([25]; 100 nM) of 4.43%. It also gave a normalised viability ([26]; 10 nM) of 87.2%, a normalised viability ([26]; 1000 nM) of 14.2% and a normalised viability ([26]; 10000 nM) of 11%. For the same compound, the normalised viability ([27]; 10 nM) was 68.9%, the normalised viability ([27]; 1000 nM) was 17% and the normalised viability ([27]; 10000 nM) was 12.9%. It also gave a normalised viability ([28]; 10 nM) of 55.9%, a normalised viability ([28]; 1000 nM) of 13.9% and a normalised viability ([28]; 10000 nM) of 14.3%. It also gave a normalised viability ([29]; 3 nM) of 92.5%, a normalised viability ([29]; 30 nM) of 24.6% and a normalised viability ([29]; 100 nM) of 14.9%. It also gave a normalised viability ([30]; 10 nM) of 111%, a normalised viability ([30]; 1000 nM) of 1.46% and a normalised viability ([30]; 10000 nM) of 1.1%. The normalised viability ([31]; 10 nM) was 87.9%, the normalised viability ([31]; 1000 nM) was 6.79% and the normalised viability ([31]; 10000 nM) was 3.89%. The normalised viability ([32]; 10 nM) was 88.5%, the normalised viability ([32]; 1000 nM) was 19% and the normalised viability ([32]; 10000 nM) was 11.7%. It also gave a normalised viability ([33]; 3 nM) of 109%, a normalised viability ([33]; 30 nM) of 44.5% and a normalised viability ([33]; 100 nM) of 21.4%. For the same compound, the normalised viability ([34]; 10 nM) was 90.2%, the normalised viability ([34]; 1000 nM) was 4.25% and the normalised viability ([34]; 10000 nM) was 3.02%. The normalised viability ([35]; 10 nM) was 88.3%, the normalised viability ([35]; 1000 nM) was 8.87% and the normalised viability ([35]; 10000 nM) was 4.39%. It also gave a normalised viability ([36]; 10 nM) of 89.4%, a normalised viability ([36]; 1000 nM) of 6.71% and a normalised viability ([36]; 10000 nM) of 3.15%.

Compound `COc1cc(Nc2ncc(F)c(Nc3ccc4c(n3)NC(=O)C(C)(C)O4)n2)cc(OC)c1OC` [R406] (1 nM) has a normalised viability [37] of 117%, a normalised viability [38] of 97% and a normalised viability [39] of 83.5%. The normalised viability [40] was 110%, the normalised viability [41] was 106% and the normalised viability [42] was 84.8%. For the same compound, the normalised viability [43] was 112%, the normalised viability [44] was 91.6% and the normalised viability [45] was 101%. It also gave a normalised viability [46] of 91.6%, a normalised viability [47] of 116% and a normalised viability [48] of 116%. The normalised viability [49] was 95.7%, the normalised viability [50] was 92.1% and the normalised viability [51] was 106%. The normalised viability [52] was 94.1%, the normalised viability [53] was 93.3% and the normalised viability [54] was 102%.

`c1ccc(C2CN3CCSC3=N2)cc1` (stereo unspecified) [Tetramisole] (1 nM) showed a normalised viability [37] of 80.2%, a normalised viability [38] of 97.8% and a normalised viability [39] of 118%. It also gave a normalised viability [40] of 117%, a normalised viability [41] of 91.6% and a normalised viability [42] of 96.5%. For the same compound, the normalised viability [43] was 83%, the normalised viability [44] was 107% and the normalised viability [45] was 95.3%. For the same compound, the normalised viability [46] was 94.3%, the normalised viability [47] was 126% and the normalised viability [48] was 110%. The normalised viability [49] was 99.2%, the normalised viability [50] was 102% and the normalised viability [51] was 106%. The normalised viability [52] was 112%, the normalised viability [53] was 98.5% and the normalised viability [54] was 116%.

`CCCC(CCC)C(=O)O` [Valproic acid] (1 nM) was tested, and the normalised viability [37] was 99%, the normalised viability [38] was 98.6% and the normalised viability [39] was 105%. It also gave a normalised viability [40] of 103%, a normalised viability [41] of 99.8% and a normalised viability [42] of 95.3%. For the same compound, the normalised viability [43] was 109%, the normalised viability [44] was 99.1% and the normalised viability [45] was 83.6%. The normalised viability [46] was 115%, the normalised viability [47] was 119% and the normalised viability [48] was 130%. For the same compound, the normalised viability [49] was 97.7%, the normalised viability [50] was 89.9% and the normalised viability [51] was 108%. For the same compound, the normalised viability [52] was 102%, the normalised viability [53] was 104% and the normalised viability [54] was 103%.
